Laboratory results published in publication PMC9436915, “Tetrahedral framework nucleic acids‐based delivery promotes intracellular transfer of healing peptides and accelerates diabetic would healing” (Cell Proliferation, 2022).
Where a SMILES comes first, the peptide text is derived from it.

Legend:
p-ERK1/2 = assay: Western blotting, ERK1/2 phosphorylation; type: cell-based; details: inhibitor plus p@tFNA treatment, n = 3
Description: (§1) HUVECs under diabetic microenvironment were induced by incubation with 200 μg/ml AGEs (Bioss, Beijing, China) for 24 h. Cells were then treated with peptides or p@FNA (125 nM) for subsequent experiments.
(§2) The expression of β‐actin, VEGFA, MMP‐9, ERK1/2 and p‐ERK1/2 was detected by western blotting. The total protein of the sample was extracted by whole cell lysis method. The target protein was separated by 10% SDS‐PAGE and transferred to PVDF membrane. The bands were blocked in 5% BSA for 1 h and then incubated with primary antibodies against β‐actin (1:5000, PMK058S, BioPM, Wuhan, China), VEGFA (ab214424, Abcam, Cambridge, UK), MMP‐9 (ab76003, Abcam, Cambridge, UK), ERK1/2 (1:1000, CST, #4370, MA) and p‐ERK1/2 (1:2000, CST, #4370, MA) overnight at 4°C. The next day, PVDF membranes were rewarmed and incubated with secondary antibodies for 1 h. Bands were washed three times with TBST. The final exposure was performed in a Bio‐Rad chemiluminometry.

HUVEC = assay: Tube formation assay on Matrigel; type: cell-based; details: inhibitor+p@tFNA group; n = 3
Description: as §1
The formation of blood vessel‐like structures in vitro was observed by tube formation assay. Cells were pre‐incubated with AGEs for 24 h and subsequently treated with peptide or p@FNA for another 24 h. Subsequently, 100 μl of HUVEC (1–1.5 × 10^5 cells/ml) were seeded on Matrigel (Corning, NY) in 96‐well plates. Images were taken after 6 h. Statistical analysis of tube formation was performed by Image J.

VEGFA = assay: Western blotting, VEGFA protein; type: cell-based; details: inhibitor plus p@tFNA treatment, n = 3
Description: as §1, §2

trypsin = assay: Enzyme stability of peptide with trypsin; type: in vitro ADME; details: 37 °C, during 1.5 h, UV 205 nm
Description: As to the enzyme stability of peptide, equal amount of peptide and p@FNA were treated with trypsin and incubated in 37 °C for 1.5, 3, and 6 h. The remaining amount of peptide was measured by UV spectrophotometer (205 nm). As to enzyme stability of tFNA, equal amount of tFNA and p@FNA were treated with DNase I for 1 min. After neutralization, samples were examined by 6%PAGE at 60 V for 80 min.

SMILES | p-ERK1/2 expression after ERK1/2 inhibitor (p-ERK1/2) [fold] | Tube formation after ERK1/2 inhibition: branching intervals (HUVEC) [fold] | Tube formation after ERK1/2 inhibition: branching length (HUVEC) [fold] | Tube formation after ERK1/2 inhibition: junctions (HUVEC) [fold] | Tube formation after ERK1/2 inhibition: meshes (HUVEC) [fold] | Tube formation after ERK1/2 inhibition: nodes (HUVEC) [fold] | Tube formation after ERK1/2 inhibition: total length (HUVEC) [fold] | Tube formation after ERK1/2 inhibition: total mesh area (HUVEC) [fold] | VEGFA expression after ERK1/2 inhibitor (VEGFA) [fold] | Stability to trypsin (in words) (trypsin)
Cn1nccc1Nc1nccc(-c2cc3c(s2)C(C)(C)N(CCN2CCOCC2)C3=O)n1 [LY3214996] | 0.69 | 0.49 | 0.25 | 0.19 | 0.13 | 0.20 | 0.35 | 0.02 | 0.59 | –
C[C@@H](O)[C@H](NC(=O)[C@H](CCCNC(=N)N)NC(=O)CNC(=O)[C@H](CCC(=O)O)NC(=O)[C@@H](N)CCCNC(=N)N)C(=O)O [peptide] (H-REGRT-OH) | – | – | – | – | – | – | – | – | – | rapid decomposition
